In ChEMBL document CHEMBL1201862, “PubChem BioAssay data set” (2004):
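A five-concentration, 48-hour dose response in 96-well plates underlies each endpoint, interpolated linearly between surrounding concentrations. GI50: concentration for 50% inhibition of growth.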 Calls of active or inactive are those of the source. Rule as the data show it: active = GI50 up to about 1.1 µM and inactive = higher.

Legend:
Test in all cases: inhibition of tumour cell growth, NCI panel, 48 h
SK-MEL-2 = tested on: SK-MEL-2
A549 = tested on: A549
SNB-78 = tested on: SNB-78
SNB-19 = tested on: SNB-19
RXF 393 = tested on: RXF 393
HL-60 = tested on: HL-60
TK-10 = tested on: TK-10
OVCAR-3 = tested on: OVCAR-3
CAKI-1 = tested on: CAKI-1
NCI-H460 = tested on: NCI-H460
Malme-3M = tested on: Malme-3M
HOP-92 = tested on: HOP-92
OVCAR-8 = tested on: OVCAR-8
CCRF-CEM = tested on: CCRF-CEM
HCT-15 = tested on: HCT-15
SR = tested on: SR
SNB-75 = tested on: SNB-75
Hs-578T = tested on: Hs-578T
DU-145 = tested on: DU-145
PC-3 = tested on: PC-3

| SMILES | GI50 (SK-MEL-2) | GI50 (A549) | GI50 (SNB-78) | GI50 (SNB-19) | GI50 (RXF 393) | GI50 (HL-60) | GI50 (TK-10) | GI50 (OVCAR-3) | GI50 (CAKI-1) | GI50 (NCI-H460) | GI50 (Malme-3M) | GI50 (HOP-92) | GI50 (OVCAR-8) | GI50 (CCRF-CEM) | GI50 (HCT-15) | GI50 (SR) | GI50 (SNB-75) | GI50 (Hs-578T) | GI50 (DU-145) | GI50 (PC-3) |
| --- | --- | --- | --- | --- | --- | --- | --- | --- | --- | --- | --- | --- | --- | --- | --- | --- | --- | --- | --- | --- |
| CC(C)(Oc1ccc2c(=O)cc(-c3ccccc3)oc2c1)C(=O)Nc1c(Cl)cccc1Cl | > 100 µM (inactive) | 67.1 µM (inactive) | > 100 µM (inactive) | > 100 µM (inactive) | < 0.01 µM (active) | 44.3 µM (inactive) | > 100 µM (inactive) | > 100 µM (inactive) | > 100 µM (inactive) | > 100 µM (inactive) | > 100 µM (inactive) | 20.1 µM (inactive) | 29.4 µM (inactive) | 57.7 µM (inactive) | 76.7 µM | > 100 µM (inactive) |  |  |  |  |
| Cc1ccc(Nc2ccc(Nc3ccc(C)cc3)c3c2C(=O)c2c(O)ccc(O)c2C3=O)cc1 | > 100 µM (inactive) | > 100 µM (inactive) | 68.1 µM (inactive) | > 100 µM (inactive) | > 100 µM (inactive) | 80.9 µM (inactive) | > 100 µM (inactive) | 70.5 µM (inactive) | > 100 µM (inactive) | > 100 µM (inactive) | > 100 µM (inactive) | > 100 µM (inactive) | > 100 µM (inactive) | 67.6 µM (inactive) | > 100 µM |  | 68.4 µM (inactive) |  |  |  |
| COc1ccc(C2SC(=N)Nc3c2c(C)nn3C(=O)c2ccc(Cl)cc2)cc1OC (centres undefined) | > 10 µM (inactive) | > 10 µM (inactive) |  | > 10 µM (inactive) | > 10 µM (inactive) | > 10 µM (inactive) | > 10 µM (inactive) | > 10 µM (inactive) | > 10 µM (inactive) | > 10 µM (inactive) | > 10 µM (inactive) | > 10 µM (inactive) | > 10 µM (inactive) | > 10 µM (inactive) | > 10 µM | > 10 µM (inactive) | > 10 µM (inactive) | > 10 µM (inactive) | > 10 µM (inactive) | > 10 µM (inactive) |
| CC1=NN(C(=O)Cc2ccccc2)C(=O)/C1=C\c1ccc(O)cc1 | > 100 µM (inactive) | > 100 µM (inactive) | 36.8 µM (inactive) | > 100 µM (inactive) | > 100 µM (inactive) | > 100 µM (inactive) | > 100 µM (inactive) | > 100 µM (inactive) | > 100 µM (inactive) | > 100 µM (inactive) | > 100 µM (inactive) | > 100 µM (inactive) | > 100 µM (inactive) | > 100 µM (inactive) | > 100 µM |  |  |  |  |  |
| CC1=C(C(=O)Nc2cccc(C(F)(F)F)c2)C(c2ccccc2F)C(C(=O)Nc2cccc(C(F)(F)F)c2)=C(C)N1 | 3.03 µM (inactive) | 4.58 µM (inactive) | 13.9 µM (inactive) | 7.16 µM (inactive) | 3.57 µM (inactive) | 2.69 µM (inactive) | 8.26 µM (inactive) | 4.66 µM (inactive) | 8.57 µM (inactive) | 4.23 µM (inactive) | 7.08 µM (inactive) | 2.8 µM (inactive) | 9.62 µM (inactive) | 3.09 µM (inactive) |  |  | 9.57 µM (inactive) |  |  |  |
| CC1=C(C(=O)Nc2ccc([N+](=O)[O-])cc2)C(c2ccc(N(C)C)cc2)C(C(=O)Nc2ccc([N+](=O)[O-])cc2)=C(C)N1 | 13.7 µM (inactive) | 21.2 µM (inactive) | 29.2 µM (inactive) | 36.4 µM (inactive) | 12.1 µM (inactive) | 13.1 µM (inactive) | 32 µM (inactive) | 16 µM (inactive) | 31.8 µM (inactive) | 17.4 µM (inactive) | 23.3 µM (inactive) | 12.1 µM (inactive) | 26.6 µM (inactive) | 17.8 µM (inactive) |  |  | 13.7 µM (inactive) |  |  |  |
| CC(C)(C)c1cc[n+](C[n+]2ccc(C(C)(C)C)cc2)cc1 | > 100 µM (inactive) | > 100 µM (inactive) |  | > 100 µM (inactive) | > 100 µM (inactive) | > 100 µM (inactive) | > 100 µM (inactive) | > 100 µM (inactive) | > 100 µM (inactive) | > 100 µM (inactive) | > 100 µM (inactive) | > 100 µM (inactive) | > 100 µM (inactive) | > 100 µM (inactive) | > 100 µM | > 100 µM (inactive) | > 100 µM (inactive) | > 100 µM (inactive) | > 100 µM (inactive) | > 100 µM (inactive) |
| CCOP(=O)(O)C(Nc1ccc(/N=N/c2ccccc2)cc1)c1cccc(C(Nc2ccc(/N=N/c3ccccc3)cc2)P(=O)(O)OCC)c1 (centres undefined) | 45.2 µM (inactive) | 34.2 µM (inactive) |  | 59.8 µM (inactive) | 75.5 µM (inactive) | 22.1 µM (inactive) | > 100 µM (inactive) | 55.3 µM (inactive) | 66.1 µM (inactive) | 33.3 µM (inactive) | > 100 µM (inactive) | 41.4 µM (inactive) | 55 µM (inactive) | 15.5 µM (inactive) | 24.8 µM | 31.3 µM (inactive) | 44.4 µM (inactive) | 38.7 µM (inactive) | 80.9 µM (inactive) | 23.9 µM (inactive) |
